Measured values from patent publication US7683078B2, “Arylsulfonamide derivatives as C-Jun-N-Terminal Kinases (JNK's) inhibitors” (Laboratoires Serono S.A., priority 2001, dated 2010).

Target: JNK3 (Homo sapiens, UniProt P53779)
Assay: JNK3 in vitro assay (33P incorporation into c-jun, SPA)
Format: biochemical
Conditions: recombinant pre-activated GST-JNK3, biotinylated GST-c-Jun, 2 μM 33γ-ATP, 120 min R.T.; read-out: inhibition (IC50) with regard to JNK3
Protocol: The phosphorylation of c-jun by JNK2 or JNK3 can be followed by monitoring the incorporation of ^33P into c-jun following the protocol below. The inhibitory activity of the compounds according to formula I, towards c-jun phosphorylation through JNK, is determined by calculating phosphorylation activity in the presence or absence of compounds according to formula I.
JNK3 and/or -2 assays are performed in 96 well MTT plates: incubation of 0.5 μg of recombinant, pre-activated GST-JNK3 or GST-JNK2 with 1 μg of recombinant, biotinylated GST-c-Jun and 2 μM ^33γ-ATP (2 nCi/μl), in the presence or absence of compounds according to formula I and in a reaction volume of 50 μl containing 50 mM Tris-HCl, pH 8.0; 10 mM MgCl2; 1 mM Dithiothreitol, and 100 μM Na3VO4. The incubation is performed for 120 min. at R.T and stopped upon addition of 200 μl of a solution containing 250 μg of Streptavidine-coated SPA beads (Amersham, Inc.)*, 5 mM EDTA, 0.1% Triton-X-100 and 50 μM ATP, in phosphate saline buffer. After incubation for 60 minutes at RT, beads are sedimented by centrifugation at 1500×g for 5 minutes, resuspended in 200 μl of PBS containing 5 mM EDTA, 0.1% Triton X-100 and 50 μM ATP and the radioactivity measured in a scintillation β counter, following sedimentation of the beads as described above. […]

Sequence of JNK3 (P53779 whole entry, species assumed): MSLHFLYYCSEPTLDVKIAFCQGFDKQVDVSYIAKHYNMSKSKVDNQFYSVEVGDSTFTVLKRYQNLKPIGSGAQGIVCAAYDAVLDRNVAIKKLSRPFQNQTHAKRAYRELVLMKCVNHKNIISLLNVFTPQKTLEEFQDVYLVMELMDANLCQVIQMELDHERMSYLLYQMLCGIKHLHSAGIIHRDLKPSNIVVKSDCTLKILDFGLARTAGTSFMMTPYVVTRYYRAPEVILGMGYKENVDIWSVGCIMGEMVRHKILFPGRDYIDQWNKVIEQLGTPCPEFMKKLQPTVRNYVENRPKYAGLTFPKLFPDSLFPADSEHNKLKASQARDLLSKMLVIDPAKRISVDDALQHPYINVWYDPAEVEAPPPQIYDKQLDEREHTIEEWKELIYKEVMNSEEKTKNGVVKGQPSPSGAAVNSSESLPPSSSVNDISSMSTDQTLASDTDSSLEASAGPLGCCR

CCCCCCNCCCN(C)S(=O)(=O)c1ccc(CNC(=O)c2ccc(Cl)cc2)s1 [Compound 14, 4-Chloro-N-{5-[(3-hexylamino-propyl)-methyl-sulfamoyl]-thiophen-2-ylmethyl}-benzamide]
IC50: 0.184 µM

CN(CCCNCc1ccc(C(F)(F)F)cc1)S(=O)(=O)c1ccc(CNC(=O)c2ccc(Cl)cc2)s1 [Compound 13, 4-Chloro-N-(5-{methyl-[3-(4-trifluoromethyl-benzylamino)-propyl]-sulfamoyl}-thiophen-2-ylmethyl)-benzamide]
IC50: 0.188 µM
